# In paper PMC4767465, “NF-κB drives acquired resistance to a novel mutant-selective EGFR inhibitor” (Oncotarget, 2015):
# Read-outs that look alike come from different tables or passages of the source.
# Legend:
# [1] = system: NCI-H596; experiment: cells; parameters: anti-proliferative effect in NSCLC cell lines, 50% growth inhibition concentration (GI50); settings: Homo sapiens, NCI-H596
# Source text: (§1) The exceptional activity of the inhibitor in EGFR-T790M cells was further confirmed in three-dimensional tumor spheroids derived from NCI-H1975 cells. […] Furthermore, increase of cellular fragments in Sub-G1 phase, chromatin condensation and nuclear fragmentation were observed after treatment with the EGFR-TKI (Supplementary Figure 3A). […] The human NSCLC cell lines A549, Calu-1, Calu-6, NCI-H460, NCI-H292, NCI-H1299, NCI-H1730, NCI-H23, NCI-H3255, NCI-H520, NCI-H522, NCI-H596, HCC-827, SKMES-1, SW1573 and NCI-H1975 and the human epidermoid carcinoma A431 cells were purchased from ATCC (Manassas, VA), and cultured as recommended. 293H cells were purchased from Invitrogen (Carlsbad, CA). PC9, PC9GR4, PC9DR1 and HCC-827 GR5 were a kind gift of Dr. Pasi A. Jänne, Harvard University, Boston, MA [13]. PC9/ER, HCC-827/R1 and H3255/XLR cells are isogenic erlotinib- or XL-647-resistant lines derived from PC9, HCC-827 and NCI-H3255 cells, respectively, as previously described. Additional information on cell cultures procedures is reported in the Supplemental Methods.
# [2] = system: A549; experiment: cells; parameters: anti-proliferative effect in NSCLC cell lines, 50% growth inhibition concentration (GI50); settings: Homo sapiens, A549
# Source text: as §1
# [3] = system: HCC-827; experiment: cells; parameters: anti-proliferative effect in NSCLC cell lines, 50% growth inhibition concentration (GI50); settings: Homo sapiens, HCC827
# Source text: as §1
# [4] = system: PC9; experiment: cells; parameters: anti-proliferative effect in NSCLC cell lines, 50% growth inhibition concentration (GI50); settings: Homo sapiens, PC-9
# Source text: as §1
# [5] = system: SW1573; experiment: cells; parameters: anti-proliferative effect in NSCLC cell lines, 50% growth inhibition concentration (GI50); settings: Homo sapiens, SW1573
# Source text: as §1
# [6] = system: NCI-H3255; experiment: cells; parameters: anti-proliferative effect in NSCLC cell lines, 50% growth inhibition concentration (GI50); settings: Homo sapiens, NCI-H3255
# Source text: as §1
# [7] = system: Calu-1; experiment: cells; parameters: anti-proliferative effect in NSCLC cell lines, 50% growth inhibition concentration (GI50); settings: Homo sapiens, Calu-1
# Source text: as §1
# [8] = system: NCI-H460; experiment: cells; parameters: anti-proliferative effect in NSCLC cell lines, 50% growth inhibition concentration (GI50); settings: Homo sapiens, NCI-H460
# Source text: as §1
# [9] = molecular target: EGFR (Homo sapiens, UniProt P00533, T790M); experiment: EGFR phosphorylation in transfected […] cells; format: cell-based
# [10] = molecular target: EGFR (Homo sapiens, UniProt P00533, DEL746-750); experiment: EGFR phosphorylation in PC9 and HCC-827 cells, […] h treatment; format: cell-based
# [11] = molecular target: EGFR (Homo sapiens, UniProt P00533, DEL746-750/T790M); experiment: EGFR phosphorylation in PC9GR4 cells, […] h treatment; format: cell-based
# [12] = molecular target: WT-EGFR (Homo sapiens, UniProt P00533); experiment: radiometric HotSpot recombinant kinase assay, […] compound, […] ATP; format: biochemical
# [13] = molecular target: EGFR-L858R/T790M (Homo sapiens, UniProt P00533, L858R/T790M); experiment: radiometric HotSpot recombinant kinase assay, […] compound, […] ATP; about […] inhibition; format: biochemical
# [14] = molecular target: T1, Chk2 (Homo sapiens, UniProt O96017); experiment: radiometric HotSpot recombinant kinase assay, […] compound, […] ATP; format: biochemical
# T1 construct: gene CHEK2
# [15] = system: Calu-6; experiment: cells; parameters: anti-proliferative effect in NSCLC cell lines, 50% growth inhibition concentration (GI50); settings: Homo sapiens, Calu-6; read-out: CNX-2006 GI50
# Source text: as §1
# [16] = system: NCI-H520; experiment: cells; parameters: anti-proliferative effect in NSCLC cell lines, 50% growth inhibition concentration (GI50); settings: Homo sapiens, NCI-H520; read-out: CNX-2006 GI50
# Source text: as §1
# [17] = system: NCI-H23; experiment: cells; parameters: anti-proliferative effect in NSCLC cell lines, 50% growth inhibition concentration (GI50); settings: Homo sapiens, NCI-H23; read-out: CNX-2006 GI50
# Source text: as §1
# [18] = system: NCI-H1975; experiment: cells; parameters: anti-proliferative effect in NSCLC cell lines, 50% growth inhibition concentration (GI50); settings: Homo sapiens, NCI-H1975; read-out: CNX-2006 GI50
# Source text: as §1
# [19] = system: NCI-H1299; experiment: cells; parameters: anti-proliferative effect in NSCLC cell lines, 50% growth inhibition concentration (GI50); settings: Homo sapiens, NCI-H1299; read-out: CNX-2006 GI50
# Source text: as §1
# [20] = system: NCI-H522; experiment: cells; parameters: anti-proliferative effect in NSCLC cell lines, 50% growth inhibition concentration (GI50); settings: Homo sapiens, NCI-H522; read-out: CNX-2006 GI50
# Source text: as §1
# [21] = system: NCI-H292; experiment: cells; parameters: anti-proliferative effect in NSCLC cell lines, 50% growth inhibition concentration (GI50); settings: Homo sapiens, NCI-H292; read-out: CNX-2006 GI50
# Source text: as §1
# [22] = system: NCI-H1703; experiment: cells; parameters: anti-proliferative effect in NSCLC cell lines, 50% growth inhibition concentration (GI50); settings: Homo sapiens, NCI-H1703; read-out: CNX-2006 GI50
# Source text: as §1
# [23] = system: SKMES-1; experiment: cells; parameters: anti-proliferative effect in NSCLC cell lines, 50% growth inhibition concentration (GI50); settings: Homo sapiens, SK-MES-1; read-out: CNX-2006 GI50
# Source text: as §1
# T1 sequence (O96017 whole entry): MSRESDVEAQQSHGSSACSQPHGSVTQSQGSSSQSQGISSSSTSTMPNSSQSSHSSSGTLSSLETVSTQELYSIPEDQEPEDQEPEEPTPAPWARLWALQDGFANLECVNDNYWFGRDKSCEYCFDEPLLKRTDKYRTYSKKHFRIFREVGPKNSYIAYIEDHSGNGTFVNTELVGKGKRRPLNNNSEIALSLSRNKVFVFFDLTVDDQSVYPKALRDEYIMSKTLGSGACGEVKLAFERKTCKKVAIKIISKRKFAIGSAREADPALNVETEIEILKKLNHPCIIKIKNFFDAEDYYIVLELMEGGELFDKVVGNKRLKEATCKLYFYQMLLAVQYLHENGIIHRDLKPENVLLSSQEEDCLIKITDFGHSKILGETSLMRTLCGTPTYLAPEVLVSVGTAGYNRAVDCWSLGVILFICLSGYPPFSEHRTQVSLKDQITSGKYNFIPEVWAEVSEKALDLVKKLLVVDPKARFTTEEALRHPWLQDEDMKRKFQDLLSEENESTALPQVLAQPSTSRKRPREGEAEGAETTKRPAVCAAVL
smiles,measurement,setting,value
C=CC(=O)Nc1cccc(Nc2nc(Nc3ccc(N4CCN(C(C)=O)CC4)cc3OC)ncc2C(F)(F)F)c1 [CO-1686],GI50,[1]; read-out: CO-1686 GI50,2000 ± 100 nM
same,GI50,[2]; read-out: CO-1686 GI50,1200 ± 200 nM
same,GI50,[3]; read-out: CO-1686 GI50,2 ± 1 nM
same,GI50,[4]; read-out: CO-1686 GI50,4 ± 2 nM
same,GI50,[5]; read-out: CO-1686 GI50,1100 ± 100 nM
same,GI50,[6]; read-out: CO-1686 GI50,5 ± 2 nM
same,GI50,[7]; read-out: CO-1686 GI50,2000 ± 300 nM
same,GI50,[8]; read-out: CO-1686 GI50,2300 ± 200 nM
C=CC(=O)Nc1cccc(Nc2nc(Nc3ccc(NC4CN(CCF)C4)cc3OC)ncc2C(F)(F)F)c1 [CNX-2006],EGFR phosphorylation in transfected 293H cells,[9],CNX-2006 effectively inhibited the phosphorylation of the receptor at low nanomolar concentrations
same,IC50,[10],55 to 104 nM
same,IC50,[11],~61 nM
same,inhibition at 1 µM,[12],> 50%
same,inhibition at 1 µM,[13],~96%
same,inhibition at 1 µM,[14],> 50%
same,GI50,[15],3200 ± 300 nM
same,GI50,[16],5200 ± 400 nM
same,GI50,[1]; read-out: CNX-2006 GI50,4200 ± 300 nM
same,GI50,[2]; read-out: CNX-2006 GI50,2700 ± 100 nM
same,GI50,[17],2400 ± 300 nM
same,GI50,[18],72 ± 2 nM
same,GI50,[3]; read-out: CNX-2006 GI50,3 ± 2 nM
same,GI50,[4]; read-out: CNX-2006 GI50,9 ± 1 nM
same,GI50,[5]; read-out: CNX-2006 GI50,1900 ± 200 nM
same,GI50,[19],4500 ± 500 nM
same,GI50,[20],1900 ± 400 nM
same,GI50,[6]; read-out: CNX-2006 GI50,6 ± 2 nM
same,GI50,[21],340 ± 40 nM
same,GI50,[22],4300 ± 300 nM
same,GI50,[7]; read-out: CNX-2006 GI50,8000 ± 300 nM
same,GI50,[8]; read-out: CNX-2006 GI50,5000 ± 600 nM
same,GI50,[23],1400 ± 100 nM
